Target: Jarid1B (Homo sapiens (Human), UniProt Q9UGL1)
Assay: Jarid1B in vitro enzyme inhibition assay (TR-FRET)
Assay type: biochemical
Settings: 0.8 nM Jarid1B, 300 nM H3K4me3-biotin peptide, 2 μM alpha-ketoglutaric acid
Text: (§1) This assay determines the ability of a test compound to inhibit Jarid1A, Jarid1B, and JMJD2C demethylase activity. Baculovirus expressed Jarid1A (GenBank Accession #NM_001042603, AA1-1090) was purchased from BPS Bioscience (Cat#50110). Baculovirus expressed Jarid1B (GenBank Accession #NM_006618, AA 2-751) was purchased from BPS Bioscience (Cat #50121) or custom made by MolecularThroughput. Baculovirus expressed JMJD2C (GenBank Accession #BC143571, AA 2-372) was purchased from BPS Bioscience (Cat#50105).
(§2) The ability of test compounds to inhibit the activity of Jarid1B was determined in 384-well plate format under the following reaction conditions: 0.8 nM Jarid1B, 300 nM H3K4me3-biotin labeled peptide (Anaspec cat #64357), 2 μM alpha-ketoglutaric acid in assay buffer of 50 mM HEPES, pH7.3, 0.005% Brij35, 0.5 mM TCEP, 0.2 mg/ml BSA, 50 μM sodium L-ascorbate, and 2 μM ammonium iron(II) sulfate. Reaction product was determined quantitatively by TR-FRET after the addition of detection reagent Phycolink Streptavidin-allophycocyanin (Prozyme) and Europium-anti-mono- or di-methylated histone H3 lysine 4 (H3K4me1-2) antibody (PerkinElmer) in the presence of 5 mM EDTA in LANCE detection buffer (PerkinElmer) at a final concentration of 25 nM and 1 nM, respectively.
(§3) The reaction mixture was incubated at room temperature for 30 minutes, and terminated by the addition of 6 μl of 5 mM EDTA in LANCE detection buffer containing 50 nM Phycolink Streptavidin-allophycocyanin and 2 nM Europium-anti-H3K4me1-2 antibody. Plates were read by EnVisionMultilabel Reader in TR-FRET mode (excitation at 320 nm, emission at 615 nm and 665 nm) after 1 hour incubation at room temperature. A ratio was calculated (665/615) for each well and fitted to determine inhibition constant (IC50).

Chain of Jarid1B (Q9UGL1 2-751): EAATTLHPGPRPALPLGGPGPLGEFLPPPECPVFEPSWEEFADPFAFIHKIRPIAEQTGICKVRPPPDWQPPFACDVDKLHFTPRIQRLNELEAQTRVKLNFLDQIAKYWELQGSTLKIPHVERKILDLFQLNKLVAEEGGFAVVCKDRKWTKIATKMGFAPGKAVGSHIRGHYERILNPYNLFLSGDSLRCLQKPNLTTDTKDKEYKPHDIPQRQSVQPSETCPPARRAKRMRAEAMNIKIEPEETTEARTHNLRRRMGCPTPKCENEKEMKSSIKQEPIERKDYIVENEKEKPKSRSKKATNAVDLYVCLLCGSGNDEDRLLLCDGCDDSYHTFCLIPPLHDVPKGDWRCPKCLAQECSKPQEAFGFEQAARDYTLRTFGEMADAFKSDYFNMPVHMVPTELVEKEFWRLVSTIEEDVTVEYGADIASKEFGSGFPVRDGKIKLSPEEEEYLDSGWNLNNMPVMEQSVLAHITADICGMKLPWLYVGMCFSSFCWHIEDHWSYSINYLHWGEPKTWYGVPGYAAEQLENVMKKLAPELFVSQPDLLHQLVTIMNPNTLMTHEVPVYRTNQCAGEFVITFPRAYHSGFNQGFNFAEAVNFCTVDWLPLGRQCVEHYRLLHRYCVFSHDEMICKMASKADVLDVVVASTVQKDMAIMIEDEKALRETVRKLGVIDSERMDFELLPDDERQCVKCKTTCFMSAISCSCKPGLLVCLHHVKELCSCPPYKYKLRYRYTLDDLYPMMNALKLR

Row | Structure (SMILES) | IC50
1 | O=C(O)c1ccncc1NCc1ccc(Cl)cc1O [Example 21, 3-[(4-chloro-2-hydroxybenzyl)amino]pyridine-4-carboxylic acid] | ≤ 100 nM
2 | O=C(O)c1ccncc1NCc1ccc(Cl)cc1C1CC1 [Example 26, 3-[(4-chloro-2-cyclopropylbenzyl)amino]pyridine-4-carboxylic acid] | ≤ 100 nM
3 | O=C(O)c1ccncc1NCc1ccc(C(F)(F)F)cc1C1CC1 [Example 27, 3-{[2-cyclopropyl-4-(trifluoromethl)benzyl]amino}pyridine-4-carboxylic acid] | ≤ 100 nM
4 | O=C(O)c1ccncc1NCc1cccc2ccccc12 [Example 28, 3-[(naphthalene-1-ylmethyl)amino]pyridine-4-carboxylic acid] | ≤ 100 nM
5 | O=C(O)c1ccncc1NCc1cccc2cc[nH]c12 [Example 29, 3-[(1H-indol-7-ylmethyl)amino]pyridine-4-carboxylic acid] | ≤ 100 nM
6 | Cc1cccc(CNc2cnccc2C(=O)O)c1C1CC1 [Example 30, 3-[(2-cyclopropyl-3-methylbenzyl)amino]pyridine-4-carboxylic acid] | ≤ 100 nM
7 | O=C(O)c1ccncc1NCc1cnccc1C1CC1 [Example 31, 3-{[(4-cyclopropylpyridin-3-yl)-methyl]amino}pyridine-4-carboxylic acid] | ≤ 100 nM
8 | O=C(O)c1ccncc1NCc1ccccc1Oc1ccccc1 [Example 33, 3-[(2-phenoxybenzyl)amino]pyridine-4-carboxylic acid] | ≤ 100 nM
9 | Cc1ccc(C2CC2)c(CNc2cnccc2C(=O)O)c1 [Example 34, 3-[(2-cyclopropyl-5-methylbenzyl)amino]pyridine-4-carboxylic acid] | ≤ 100 nM

Now from value to molecule:

Row | IC50 | Structure (SMILES)
10 | ≤ 100 nM | Nc1ccccc1CNc1cnccc1C(=O)O [Example 22, 3-[(2-aminobenzyl)amino]pyridine-4-carboxylic acid]
11 | ≤ 100 nM | O=C(O)c1ccncc1NCc1ccc(Br)cc1 [Example 23, 3-[(4-bromobenzyl)amino]pyridine-4-carboxylic acid]
12 | ≤ 100 nM | Cc1ccc(CNc2cnccc2C(=O)O)cc1 [Example 24, 3-[(4-methylbenzyl)amino]pyridine-4-carboxylic acid]
13 | ≤ 100 nM | O=C(O)c1ccncc1NCc1ccc(C2CC2)cc1 [Example 25, 3-[(4-cyclopropylbenzyl)amino]pyridine-4-carboxylic acid]
14 | ≤ 100 nM | O=C(O)c1ccncc1NCc1cccc(C(F)(F)F)c1 [Example 32, 3-{[3-(trifluoromethyl)benzyl]amino}pyridine-4-carboxylic acid]

Target: Jarid1A (Homo sapiens (Human), UniProt P29375)
Sequence (P29375 1-1090): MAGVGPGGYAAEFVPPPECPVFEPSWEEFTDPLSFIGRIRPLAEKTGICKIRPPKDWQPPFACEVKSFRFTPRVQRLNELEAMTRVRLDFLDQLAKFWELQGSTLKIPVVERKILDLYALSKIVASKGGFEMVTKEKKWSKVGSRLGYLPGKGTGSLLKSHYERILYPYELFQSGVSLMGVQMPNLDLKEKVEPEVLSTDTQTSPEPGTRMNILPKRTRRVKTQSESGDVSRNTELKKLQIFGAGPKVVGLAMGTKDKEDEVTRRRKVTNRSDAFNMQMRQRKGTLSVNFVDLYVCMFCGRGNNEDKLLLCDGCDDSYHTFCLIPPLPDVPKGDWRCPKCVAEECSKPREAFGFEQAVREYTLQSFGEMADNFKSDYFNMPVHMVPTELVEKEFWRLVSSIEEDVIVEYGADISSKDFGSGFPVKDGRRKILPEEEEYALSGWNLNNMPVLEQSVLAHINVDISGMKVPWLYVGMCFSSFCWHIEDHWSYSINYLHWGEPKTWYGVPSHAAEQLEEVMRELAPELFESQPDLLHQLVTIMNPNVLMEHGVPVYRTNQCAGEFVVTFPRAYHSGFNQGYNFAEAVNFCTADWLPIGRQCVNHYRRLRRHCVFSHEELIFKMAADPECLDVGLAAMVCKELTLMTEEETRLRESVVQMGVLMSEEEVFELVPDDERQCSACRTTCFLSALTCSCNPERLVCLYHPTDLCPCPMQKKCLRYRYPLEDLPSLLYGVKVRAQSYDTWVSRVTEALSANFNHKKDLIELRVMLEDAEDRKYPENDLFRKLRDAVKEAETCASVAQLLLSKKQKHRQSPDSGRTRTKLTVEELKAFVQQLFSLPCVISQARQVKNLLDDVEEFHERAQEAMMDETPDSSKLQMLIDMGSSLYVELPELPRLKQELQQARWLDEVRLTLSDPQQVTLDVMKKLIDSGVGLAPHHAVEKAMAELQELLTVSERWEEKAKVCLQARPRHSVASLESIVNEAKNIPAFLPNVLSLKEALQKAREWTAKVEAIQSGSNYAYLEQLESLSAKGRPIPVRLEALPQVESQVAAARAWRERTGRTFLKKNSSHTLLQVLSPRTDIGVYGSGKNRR
Assay: Jarid1A in vitro enzyme inhibition assay (TR-FRET)
Assay type: biochemical
Settings: 1 nM Jarid1A, 300 nM H3K4me3-biotin peptide, 2 μM alpha-ketoglutaric acid
Text: as §1
as §2, with “The enzymatic assay of Jarid1A activity is based upon Time Resolved-Fluorescence Resonance Energy Transfer (TR-FRET) detection. The” for “The”, “Jarid1A” for “Jarid1B”, “1” for “0.8”, “Jarid1A,” for “Jarid1B,”
as §3

Row | Structure (SMILES) | IC50
15 | O=C(O)c1ccncc1NCc1ccc(Cl)cc1O [Example 21, 3-[(4-chloro-2-hydroxybenzyl)amino]pyridine-4-carboxylic acid] | ≤ 100 nM
16 | O=C(O)c1ccncc1NCc1ccc(Cl)cc1C1CC1 [Example 26, 3-[(4-chloro-2-cyclopropylbenzyl)amino]pyridine-4-carboxylic acid] | ≤ 100 nM
17 | O=C(O)c1ccncc1NCc1ccc(C(F)(F)F)cc1C1CC1 [Example 27, 3-{[2-cyclopropyl-4-(trifluoromethl)benzyl]amino}pyridine-4-carboxylic acid] | ≤ 100 nM
18 | O=C(O)c1ccncc1NCc1cccc2ccccc12 [Example 28, 3-[(naphthalene-1-ylmethyl)amino]pyridine-4-carboxylic acid] | ≤ 100 nM
19 | O=C(O)c1ccncc1NCc1cccc2cc[nH]c12 [Example 29, 3-[(1H-indol-7-ylmethyl)amino]pyridine-4-carboxylic acid] | ≤ 100 nM
20 | Cc1cccc(CNc2cnccc2C(=O)O)c1C1CC1 [Example 30, 3-[(2-cyclopropyl-3-methylbenzyl)amino]pyridine-4-carboxylic acid] | ≤ 100 nM
21 | O=C(O)c1ccncc1NCc1cnccc1C1CC1 [Example 31, 3-{[(4-cyclopropylpyridin-3-yl)-methyl]amino}pyridine-4-carboxylic acid] | ≤ 100 nM
22 | O=C(O)c1ccncc1NCc1ccccc1Oc1ccccc1 [Example 33, 3-[(2-phenoxybenzyl)amino]pyridine-4-carboxylic acid] | ≤ 100 nM
23 | Cc1ccc(C2CC2)c(CNc2cnccc2C(=O)O)c1 [Example 34, 3-[(2-cyclopropyl-5-methylbenzyl)amino]pyridine-4-carboxylic acid] | ≤ 100 nM

Other lines, results leading:

Row | IC50 | Structure (SMILES)
24 | ≤ 100 nM | Nc1ccccc1CNc1cnccc1C(=O)O [Example 22, 3-[(2-aminobenzyl)amino]pyridine-4-carboxylic acid]
25 | ≤ 100 nM | O=C(O)c1ccncc1NCc1ccc(Br)cc1 [Example 23, 3-[(4-bromobenzyl)amino]pyridine-4-carboxylic acid]
26 | ≤ 100 nM | Cc1ccc(CNc2cnccc2C(=O)O)cc1 [Example 24, 3-[(4-methylbenzyl)amino]pyridine-4-carboxylic acid]
27 | ≤ 100 nM | O=C(O)c1ccncc1NCc1ccc(C2CC2)cc1 [Example 25, 3-[(4-cyclopropylbenzyl)amino]pyridine-4-carboxylic acid]
28 | ≤ 100 nM | O=C(O)c1ccncc1NCc1cccc(C(F)(F)F)c1 [Example 32, 3-{[3-(trifluoromethyl)benzyl]amino}pyridine-4-carboxylic acid]

Target: JMJD2C (Homo sapiens (Human), UniProt Q9H3R0)
Sequence (Q9H3R0 2-372): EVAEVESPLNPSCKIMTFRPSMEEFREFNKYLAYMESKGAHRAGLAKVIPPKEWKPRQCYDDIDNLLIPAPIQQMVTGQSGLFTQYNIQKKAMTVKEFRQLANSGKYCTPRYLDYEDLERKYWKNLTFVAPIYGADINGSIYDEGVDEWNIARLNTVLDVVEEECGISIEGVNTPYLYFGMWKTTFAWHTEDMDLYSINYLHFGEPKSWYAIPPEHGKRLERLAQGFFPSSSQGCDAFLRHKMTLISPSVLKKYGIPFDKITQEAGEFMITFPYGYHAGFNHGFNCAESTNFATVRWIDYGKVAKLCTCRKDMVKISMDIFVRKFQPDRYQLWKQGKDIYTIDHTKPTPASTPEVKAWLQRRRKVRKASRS
Assay: JMJD2C in vitro enzyme inhibition assay (TR-FRET)
Assay type: biochemical
Settings: 0.3 nM JMJD2C, 300 nM H3K9me3-biotin peptide, 2 μM alpha-ketoglutaric acid
Text: as §1
The ability of test compounds to inhibit the activity of JMJD2C was determined in 384-well plate format under the following reaction conditions: 0.3 nM JMJD2C, 300 nM H3K9me3-biotin labeled peptide (Anaspec cat #64360), 2 μM alpha-ketoglutaric acid in assay buffer of 50 mM HEPES, pH7.3, 0.005% Brij35, 0.5 mM TCEP, 0.2 mg/ml BSA, 50 μM sodium L-ascorbate, and 2 μM ammonium iron(II) sulfate. Reaction product was determined quantitatively by TR-FRET after the addition of detection reagent Phycolink Streptavidin-allophycocyanin (Prozyme) and Europium-anti-di-methylated histone H3 lysine 9 (H3K9me2) antibody (PerkinElmer) in the presence of 5 mM EDTA in LANCE detection buffer (PerkinElmer) at a final concentration of 50 nM and 1 nM, respectively.
as §3, with “containing 100” for “containing 50”, “nM Europium-anti-H3K9me2” for “nM Europium-anti-H3K4me1-2”

Row | Structure (SMILES) | IC50
29 | O=C(O)c1ccncc1NCc1ccc(Cl)cc1O [Example 21, 3-[(4-chloro-2-hydroxybenzyl)amino]pyridine-4-carboxylic acid] | ≤ 100 nM
30 | O=C(O)c1ccncc1NCc1ccc(Cl)cc1C1CC1 [Example 26, 3-[(4-chloro-2-cyclopropylbenzyl)amino]pyridine-4-carboxylic acid] | 100 to 1000 nM
31 | O=C(O)c1ccncc1NCc1ccc(C(F)(F)F)cc1C1CC1 [Example 27, 3-{[2-cyclopropyl-4-(trifluoromethl)benzyl]amino}pyridine-4-carboxylic acid] | 100 to 1000 nM
32 | O=C(O)c1ccncc1NCc1cccc2ccccc12 [Example 28, 3-[(naphthalene-1-ylmethyl)amino]pyridine-4-carboxylic acid] | ≤ 100 nM
33 | O=C(O)c1ccncc1NCc1cccc2cc[nH]c12 [Example 29, 3-[(1H-indol-7-ylmethyl)amino]pyridine-4-carboxylic acid] | ≤ 100 nM
34 | Cc1cccc(CNc2cnccc2C(=O)O)c1C1CC1 [Example 30, 3-[(2-cyclopropyl-3-methylbenzyl)amino]pyridine-4-carboxylic acid] | ≤ 100 nM
35 | O=C(O)c1ccncc1NCc1cnccc1C1CC1 [Example 31, 3-{[(4-cyclopropylpyridin-3-yl)-methyl]amino}pyridine-4-carboxylic acid] | ≤ 100 nM
36 | O=C(O)c1ccncc1NCc1ccccc1Oc1ccccc1 [Example 33, 3-[(2-phenoxybenzyl)amino]pyridine-4-carboxylic acid] | 100 to 1000 nM
37 | Cc1ccc(C2CC2)c(CNc2cnccc2C(=O)O)c1 [Example 34, 3-[(2-cyclopropyl-5-methylbenzyl)amino]pyridine-4-carboxylic acid] | 100 to 1000 nM

Second part, the molecule after the results:

Row | IC50 | Structure (SMILES)
38 | ≤ 100 nM | Nc1ccccc1CNc1cnccc1C(=O)O [Example 22, 3-[(2-aminobenzyl)amino]pyridine-4-carboxylic acid]
39 | ≤ 100 nM | O=C(O)c1ccncc1NCc1ccc(Br)cc1 [Example 23, 3-[(4-bromobenzyl)amino]pyridine-4-carboxylic acid]
40 | ≤ 100 nM | Cc1ccc(CNc2cnccc2C(=O)O)cc1 [Example 24, 3-[(4-methylbenzyl)amino]pyridine-4-carboxylic acid]
41 | 100 to 1000 nM | O=C(O)c1ccncc1NCc1ccc(C2CC2)cc1 [Example 25, 3-[(4-cyclopropylbenzyl)amino]pyridine-4-carboxylic acid]
42 | ≤ 100 nM | O=C(O)c1ccncc1NCc1cccc(C(F)(F)F)c1 [Example 32, 3-{[3-(trifluoromethyl)benzyl]amino}pyridine-4-carboxylic acid]

From patent publication US9611221B2, “Histone demethylase inhibitors” (CELGENE QUANTICEL RESEARCH, INC., priority 2012, dated 2017)
